This is an account of results in patent US7041677B2, “Use of monochloroflosequinan in the treatment of sexual dysfunction” (R.T. Alamo Ventures I, LLC, priority 2002, dated 2006).

For orientation: inhibition means how much of the control response was suppressed.

Experiment [1] deals with Protein Serine/Threonine Kinase PKC, non-selective. Nature of the experiment: Protein Serine/Threonine Kinase PKC, non-selective, inhibition assay. It counts as biochemical, rat. The method, then:
Protein Serine/Threonine Kinase PKC, non-selective: The enzyme was obtained from rat brain and the substrate was 370 μg/ml histone. The reaction was pre-incubated 5 min at 25° C., followed by a 15 min incubation at 25° C. in a buffer of 20 mM Tris-HCl, 10 mM MgCl2.HO and 0.1 mM CaCl2.2HO, pH 7.4. [^32P]histone was quantitated.

The test system of experiment [2] is male Cynomolgus monkeys (Macaca fascicularis). Description: Erection monitoring after single intracavernosal dose. In kind it is in vivo. The conditions noted are these: 10 mg/ml intracavernosal; for Erection Score: Erection Score=2D+O; for Erection Index: Erection Score/n, n=number of animals (4 monkeys); for Onset of Erection: minutes post administration. Also on record: key to Onset Score / Duration Score: 0: no response; erection but transient—less than 1 minute; 2: erection lasting at least 1 minute but less than 5 minutes; 3: erection lasting at least 5 minutes but less than 7 minutes; 4: erection lasting longer than 7 minutes. The method, then: In this example, various halogenated derivatives of flosequinan were evaluated for their ability to induce penile erections. A single intracavernosal dose (of a given halogenated derivative of flosequinan) was administered to male Cynomolgus monkeys (Macaca fascicularis). The Cynomolgus monkey was selected because it is an appropriate established non-rodent species to be used as an erectile dysfunction model. Before the application of the test substances the possible erectile effect of dimethylsulfoxide 25% (DMSO) at a dose volume of 0.15 ml was assessed. (Concentrations of test compounds of less than 10 mg/ml were administered in 25% DMSO. Concentrations of 10 mg/ml or greater were administered in 100% DMSO). An initial dose level of 0.625 mg/kg of the test substance and the derivatives were used. If an erectile effect of the initial dose level was observed 1.25 mg/kg and finally 2.5 mg/kg of each test substance was used. Between each dose level and change of test substance there was a wash out phase of three days [except on Days 1 to 4 (Monochloroflosequinan Racemate) and days 40 to 43 (Monofluoroflosequinan) of the study where there was a wash out phase of only two days between treatments]. Dose volume: A dose volume of 0.15 ml per animal was used. The test substances were prepared according to the following scheme. For each test substance 10 mg was diluted in 1 ml of DMSO. After the test substance was completely dissolved the solution was diluted stepwise 1:2 with double distilled water to the required dose level. The test substance was formulated on the day of the dosing and stored at room temperature. No stability test was required when the test substances were formulated on the day of dosing. Remaining test substances were stored at approximately -80° C. Sufficient purpose-bred naive Cynomolgus monkeys (Macaca fascicularis) were obtained from a recognized supplier in order to provide 4 healthy male animals. At the start of study the animals were in the weight range of 4 to 7 kg and approximately 4 to 6 years old. The animals were housed in a climate controlled room to provide a minimum of 10 air changes per hour. Routinely the temperature and relative humidity ranges were between 19-25° C. and 30-70% respectively. Artificial lighting was controlled automatically to give a cycle of 12 hours light and 12 hours dark. The animals were housed singly in stainless steel cages (dimensions: 600 mm×600 mm×800 mm; E. Becker & Co. GmbH, 44579 Castrop-Rauxel, Germany). Each animal was offered twice daily between 50 to 70 g of a commercial pellet diet for primates (Ssniff P10, Ssniff Spezialdiäten GmbH, Ferdinand-Gabriel-Weg 16, 59494 Soest, Germany). Every three months diet was analyzed for specific contaminants. Tap water was provided ad libtum via an automatic watering system or bottles, except during urine collection. The water was periodically analyzed for specific contaminants found to be present in the diet or water at levels that might interfere with achieving the objective of the study. Clinical Observations: In addition to the initial pharmacological effect (penile erection) monitoring, all animals were observed twice daily for signs of ill health or overt toxicity. An individual record was maintained of the clinical condition of each animal. Post-dosing observations were performed at the discretion of the Study Director. All animals were examined at the beginning and the end of the working hours. […] Body weights were recorded once before dosing. Food consumption was not recorded. For proof of erection capability the animals were checked once pre-dose with electrostimulation using a rectal probe under sedation with […]. […] The onset post drug administration and duration of erection were recorded. Table 5 (below) provides an “Erection Score” and “Erection Index” for the same selected halogenated flosequinan derivatives presented in Table 5. […]

For the next experiment, the system named is PDE3. Description: Biochemical assay of PDE3 inhibition by flosequinan enantiomers. As to conditions: same molar concentration. The text has this: It is not intended that the present invention be limited to any particular mechanism to reduce symptoms of sexual dysfunction. In one embodiment, the (+) and (−) enantiomers of flosequinan were subjected to biochemical assays to determine their respective percent inhibition of PDE3.

A further experiment deals with T1, PDE1 (Bos taurus, UniProt P14100).
T1 construct: PDE1 partially purified from bovine heart was used; from tissue; host or cells: bovine heart
Nature of the experiment: PDE1 enzyme inhibition assay. It counts as biochemical, bovine. The conditions noted are these: 1000 μM, 1% DMSO vehicle. From the text:
In this example, a racemic mixture of monochloroflosequinan and the sulfone derivative of monochloroflosequinan were independently subjected to biochemical enzyme assays to determine their respective percent inhibition of a variety of phosphodiesterases (PDE1-PDE6). The methods used have been adapted from those described in the scientific literature, see Hidaka and Asano “Human blood platelet 3′:5′ cyclic nucleotide phosphodiesterase. Isolation of low-Km and high Km phosphodiesterase.” Biochem. Biophys. Acta 429:485 (1976); Nicholoson et al. “Differential modulation of tissue function and therapeutic potential of selective inhibitors of cyclic nucleotide phosphodiesterase isoenzymes” Trends Pharmacol. Sci. 12:19 (1991); Cortijo et al. “Investigation into the role of phosphodiesterase IV in bronchorelaxation, including studies with hyman bronchus.” Br. J. Pharmacol. 108:562 (1993); Baehr et al. “Isolation and characterization of cGMP phosphodiesterase from bovine rod outer segments.” J. Biol. Chem. 254:11669 (1979) and Gillespie and Beavo “Inhibition and stimulation of photoreceptor phosphodiesterase by dipyridamole and M&B 22,948” Molecular Pharm. 36:773 (1989). A brief summary of the conditions for each enzyme assay is provided below: • PDE1: PDE1 partially purified from bovine heart was used. The compounds were independently incubated with 13 μg PDE1 enzyme, 1.01 μM [^3H]cAMP+cAMP and CaCl2/calmodulin in Tris buffer pH 7.5 for 20 minutes at either 25° C. or 30° C. The reaction was terminated by boiling for 2 minutes, and the resulting AMP was converted to adenosine by addition of 10 mg/ml snake venom nucleotidase and further incubation at 30° C. for 10 minutes. Unhydrolyzed cAMP was bound to AGI-X2 resin, and the remaining [^3H]adenosine in the aqueous phase was quantitated by scintillation counting. • PDE2: PDE2 partially purified from human platelets was used. The compounds were independently incubated with 23 μg PDE2 enzyme, 25.1 μM [^3H]cAMP+cAMP in Tris buffer pH 7.5 for 20 minutes at either 25° C. or 30° C. The reaction was terminated by boiling for 2 minutes, and the resulting AMP was converted to adenosine by addition of 10 mg/ml snake venom nucleotidase and further incubation at 30° C. for 10 minutes. Unhydrolyzed cAMP was bound to AGI-X2 resin, and the remaining [^3H]adenosine in the aqueous phase was quantitated by scintillation counting. • PDE3: PDE3 partially purified from human platelets was used. The compounds were independently incubated with 13 ug PDE3 enzyme and 1.01 μM [^3H]cAMP+cAMP in Tris buffer pH 7.5 for 20 minutes at either 25° C. or 30° C. The reaction was terminated by boiling for 2 minutes, and the resulting AMP was converted to adenosine by addition of 10 mg/ml snake venom nucleotidase and further incubation at 30° C. for 10 minutes. Unhydrolyzed cAMP was bound to AGI-X2 resin, and the remaining [^3H]adenosine in the aqueous phase was quantitated by scintillation counting. • PDE4: PDE4 partially purified from human U-937 pronocytic cells was used. The compounds were independently incubated with 20 μg PDE4 enzyme and 1.01 μM [^3H]cAMP+cAMP in Tris buffer pH 7.5 for 20 minutes at either 25° C. or 30° C. […] Unhydrolyzed cAMP was bound to AGI-X2 resin, and the remaining [^3H]adenosine in the aqueous phase was quantitated by scintillation counting. • PDE5: PDE5 partially purified from human platelets was used. […]

Another experiment deals with PDE4. Nature of the experiment: PDE4 enzyme inhibition assay. In kind it is biochemical, human. As to conditions: 1000 μM, 1% DMSO vehicle. The text has this:
In this example, a racemic mixture of monochloroflosequinan and the sulfone derivative of monochloroflosequinan were independently subjected to biochemical enzyme assays to determine their respective percent inhibition of a variety of phosphodiesterases (PDE1-PDE6). The methods used have been adapted from those described in the scientific literature, see Hidaka and Asano “Human blood platelet 3′:5′ cyclic nucleotide phosphodiesterase. Isolation of low-Km and high Km phosphodiesterase.” Biochem. Biophys. […] Unhydrolyzed cAMP was bound to AGI-X2 resin, and the remaining [^3H]adenosine in the aqueous phase was quantitated by scintillation counting. • PDE2: PDE2 partially purified from human platelets was used. […] Unhydrolyzed cAMP was bound to AGI-X2 resin, and the remaining [^3H]adenosine in the aqueous phase was quantitated by scintillation counting. • PDE3: PDE3 partially purified from human platelets was used. […] Unhydrolyzed cAMP was bound to AGI-X2 resin, and the remaining [^3H]adenosine in the aqueous phase was quantitated by scintillation counting. • PDE4: PDE4 partially purified from human U-937 pronocytic cells was used. […] Unhydrolyzed cAMP was bound to AGI-X2 resin, and the remaining [^3H]adenosine in the aqueous phase was quantitated by scintillation counting. • PDE5: PDE5 partially purified from human platelets was used. […]

Several values for one entry are separate records, joined by “and”; a condition that tells them apart may be missing. Equal entries are not always repeated.

For the compound `Cn1cc([S+]([O-])CF)c(=O)c2ccc(F)cc21` (racemic) [monofluoroflosequinan, 7-fluoro-3-fluoromethylsulfinyl-1-methyl-4-quinolone], the “inhibition of protein serine/threonine kinase, PKC, non-selective” value is given as “Significant inhibition” in experiment [1] (100 μM, result in words); “Significant inhibition” in experiment [1] (300 μM, result in words); “Significant inhibition” in experiment [1] (1000 μM, 1% DMSO vehicle, result in words). Moreover, the “Duration Score” value in experiment [2] (monkey 11539M) is 0; in experiment [2] (monkey 11543M), 0; in experiment [2] (monkey 11584M) it was 0; in experiment [2] (monkey 11590M), 4 (erection lasting longer than 7 minutes). Also, the “Onset Score” value in experiment [2] (monkey 11539M) is 0; in experiment [2] (monkey 11543M), 0; in experiment [2] (monkey 11584M), 0; in experiment [2] (monkey 11590M), 4 (erection onset 1 minute or less (immediate)). Further, the “Erection Score” value in experiment [2] (monkey 11539M) came to 0; in experiment [2] (monkey 11543M), 0; in experiment [2] (monkey 11584M) it was 0; in experiment [2] (monkey 11590M) it was 12. Further, the “Duration Erection” value in experiment [2] (monkey 11590M) was 1 min and 2 min. Besides, the “Erection Index” value in experiment [2] amounted to 3.0.

As for `Cn1cc([S+](C)[O-])c(=O)c2ccc(F)cc21` (single isomer, unassigned; (+)) [(+) enantiomer of flosequinan], in the experiment with PDE3, the “PDE3 inhibition compared to a racemic mixture of flosequinan” value is recorded as “greater inhibition” and the “PDE3 inhibition compared to the (−) enantiomer of flosequinan” value is on record as “eight-fold increase”.

`Cn1cc(S(=O)(=O)C(F)F)c(=O)c2ccc(F)cc21` [3-difluoromethylsulfonyl-7-fluoro-1-methyl-4-quinolone] came in with an inhibition at 1000 µM against PDE1 greater than 50%. Moreover, the “inhibition of PDE4” value in the experiment with PDE4 is listed as “greater than 50%”.

As for `Cn1cc([S+]([O-])CC(=O)O)c(=O)c2ccc(F)cc21` (stereo not drawn) [carboxyflosequinan, 3-carboxymethylsulfinyl-7-fluoro-1-methyl-4-quinolone], the “inhibition of protein serine/threonine kinase, PKC, non-selective” value in experiment [1] (100 μM, 1% DMSO vehicle) is listed as “greater than 50%”; in experiment [1] (300 μM, 1% DMSO vehicle), “greater than 50%”; in experiment [1] (1000 μM, 1% DMSO vehicle) it was “greater than 50%”. Further, the “Duration Score” value in experiment [2] (monkey 11539M) is listed as 0; in experiment [2] (monkey 11543M), 0; in experiment [2] (monkey 11584M) it was 0; in experiment [2] (monkey 11590M) it was 4 (erection lasting longer than 7 minutes). In addition, the “Onset Score” value is recorded as 0 in experiment [2] (monkey 11539M), 0 in experiment [2] (monkey 11543M), 0 in experiment [2] (monkey 11584M) and 4 (erection onset 1 minute or less (immediate)) in experiment [2] (monkey 11590M). The “Erection Score” value in experiment [2] (monkey 11539M) is listed as 0; in experiment [2] (monkey 11543M), 0; in experiment [2] (monkey 11584M), 0; in experiment [2] (monkey 11590M), 8. Also, in experiment [2] (monkey 11590M), the “Duration Erection” value is 2 min. The “Onset of Erection” value in experiment [2] (monkey 11590M) was “immediate <1 min”. Besides, the “Erection Index” value in experiment [2] turned out to be 2.

With `Cn1cc([S+]([O-])C(F)F)c(=O)c2ccc(F)cc21` (stereo not drawn) [difluoroflosequinan, 3-difluoromethylsulfinyl-7-fluoro-1-methyl-4-quinolone], in experiment [2] (monkey 11539M), the “Duration Score” value is 0, the “Onset Score” value is 0 and the “Erection Score” value stood at 0. For the same compound, in experiment [2] (monkey 11543M), the “Duration Score” value worked out at 0, the “Onset Score” value was found to be 0 and the “Erection Score” value is listed as 0. Besides, in experiment [2] (monkey 11584M), the “Duration Score” value is 0, the “Onset Score” value came out at 0 and the “Erection Score” value was 0. Besides, in experiment [2] (monkey 11590M), the “Duration Erection” value was 6 min, the “Duration Score” value is recorded as 3 (erection lasting at least 5 minutes but less than 7 minutes), the “Onset Score” value was 4 (erection onset 1 minute or less (immediate)) and the “Onset of Erection” value is reported as “immediate <1 min”. Also, in experiment [2] (monkey 11590M), the “Erection Score” value turned out to be 10. Also, the “Erection Index” value in experiment [2] is listed as 2.5.
